Results published in ChEMBL document CHEMBL1133206, “Antifungal rapamycin analogues with reduced immunosuppressive activity” (Bioorg Med Chem Lett, 2000).
≈ marks a conversion by molar mass, not a printed value.

Legend:
Aspergillus niger [1] = assay: Compound was screened in vitro for antifungal activity at a minimum inhibitory concentration (~100 ug/mL) against Aspergillus niger; not affected; type: functional
Candida albicans [2] = assay: In vitro antifungal activity against Candida albicans (CA 10231); type: functional
Pichia kudriavzevii = assay: In vitro antifungal activity against Candida krusei (CK 28838); type: functional
Candida albicans [3] = assay: Compound was screened in vitro for antifungal activity against Candida albicans (CA 38247); weak; type: functional, organism-based
Candida albicans [4] = assay: Compound was screened in vitro for antifungal activity against Candida albicans (CA 442); weak; type: functional, organism-based
Candida albicans [5] = assay: In vitro for antifungal activity against Candida albicans (CA 579a); type: functional
Candida albicans [6] = assay: Compound was screened in vitro for antifungal activity against Candida albicans (CA 62376); weak; type: functional, organism-based
Candida albicans [7] = assay: Compound was screened in vitro for antifungal activity at a minimum inhibitory concentration (~100 ug/mL) against […] (CA 34140); not affected; type: functional
Candida tropicalis = assay: In vitro antifungal activity against Candida tropicalis (CT 750); type: functional
Homo sapiens = species: Homo sapiens; assay: Inhibitory activity against human concanavalin-A proliferation assay; type: functional
Nakaseomyces glabratus = assay: In vitro antifungal activity against Torulopsis glabrata (TG 15545); type: functional
[8] = target: Peptidyl-prolyl cis-trans isomerase FKBP1A (Homo sapiens, UniProt P62942); assay: The compound was tested for binding affinity to FK506 binding protein 12 using Rapamycin as control, with an ascomycin conjugate of alkaline phosphatase in a competition binding assay
Sequence of Peptidyl-prolyl cis-trans isomerase FKBP1A (P62942 whole entry): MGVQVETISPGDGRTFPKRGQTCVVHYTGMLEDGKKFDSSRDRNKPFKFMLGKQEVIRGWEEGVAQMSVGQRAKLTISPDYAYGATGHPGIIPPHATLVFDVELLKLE

Candida albicans [9] = assay: Compound was screened in vitro for antifungal activity against Candida albicans (CA 38247); type: functional
Candida albicans [10] = assay: Compound was screened in vitro for antifungal activity against Candida albicans (CA 442); type: functional
Candida albicans [11] = assay: Compound was screened in vitro for antifungal activity against Candida albicans (CA 62376); type: functional
Aspergillus niger [12] = assay: In vitro antifungal activity at a minimum inhibitory concentration (~100 ug/mL) against Aspergillus niger; Not affected; type: functional; conditions: Aspergillus niger; read-out: MIC
Candida albicans [13] = assay: In vitro antifungal activity against Candida albicans (CA 38247); Weak; type: functional, organism-based
Candida albicans [14] = assay: In vitro antifungal activity against Candida albicans (CA 442); Weak; type: functional, organism-based
Candida albicans [15] = assay: In vitro antifungal activity against Candida albicans (CA 62376); Weak; type: functional, organism-based
Candida albicans [16] = assay: In vitro antifungal activity against […] (CA 34140); Not affected.; type: functional

Row | Compound | MIC (Aspergillus niger [1]) [µg/mL] | MIC (Candida albicans [2]) [µg/mL] | MIC (Pichia kudriavzevii) [µg/mL] | MIC (Candida albicans [3]) | MIC (Candida albicans [4]) | MIC (Candida albicans [5]) [µg/mL] | MIC (Candida albicans [6]) | MIC (Candida albicans [7]) [µg/mL] | MIC (Candida tropicalis) [µg/mL] | MIC (Nakaseomyces glabratus) [µg/mL] | IC50 [8] [nM] | MIC (Candida albicans [9]) [µg/mL] | MIC (Candida albicans [10]) [µg/mL] | MIC (Candida albicans [11]) [µg/mL] | MIC (Aspergillus niger [12]) [µg/mL] | MIC (Candida albicans [13]) | MIC (Candida albicans [14]) | MIC (Candida albicans [15]) | MIC (Candida albicans [16]) [µg/mL] | IC50 (Homo sapiens) [nM]
1 | CO[C@@H]1C[C@H](C[C@@H](C)[C@@H]2CC(=O)[C@H](C)/C=C(\C)[C@@H](O)[C@@H](OC)C(=O)[C@H](C)C[C@H](C)/C=C/C=C/C=C(\C)[C@H](N(O)C(C)=O)C[C@@H]3CC[C@@H](C)[C@@](O)(O3)C(=O)C(=O)N3CCCC[C@H]3C(=O)O2)CC[C@H]1O | ~100 (≈ 104 µM) | 6.25 (≈ 6.53 µM) | 3.12 (≈ 3.26 µM) | Weak | Weak | 6.25 (≈ 6.53 µM) | Weak | ~100 (≈ 104 µM) | 6.25 (≈ 6.53 µM) | 1.56 (≈ 1.63 µM) |  |  |  |  |  |  |  |  |  | 95
2 | CO[C@H]1C[C@@H]2CC[C@@H](C)[C@@](O)(O2)C(=O)C(=O)N2CCCC[C@H]2C(=O)O[C@H]([C@H](C)C[C@@H]2CC[C@@H](OC(=O)N(C)OC)[C@H](OC)C2)CC(=O)[C@H](C)/C=C(\C)[C@@H](O)[C@@H](OC)C(=O)[C@H](C)C[C@H](C)CCCC/C=C/1C |  | 50 (≈ 49.7 µM) | > 100 |  |  | > 100 |  |  | > 100 |  | > 1000 |  |  |  |  |  |  |  |  | 2470
3 | CO[C@H]1C[C@@H]2CC[C@@H](C)[C@@](O)(O2)C(=O)C(=O)N2CCCC[C@H]2C(=O)O[C@H]([C@H](C)C[C@@H]2CC[C@@H](OC(=O)N3CCOCC3)[C@H](OC)C2)CC(=O)[C@H](C)/C=C(\C)[C@@H](O)[C@@H](OC)C(=O)[C@H](C)C[C@H](C)CCCC/C=C/1C |  | > 100 | > 100 |  |  | > 100 |  |  | > 100 |  | > 1000 | > 100 | > 100 |  |  |  |  |  |  | 
4 | CO[C@H]1C[C@@H]2CC[C@@H](C)[C@@](O)(O2)C(=O)C(=O)N2CCCC[C@H]2C(=O)O[C@H]([C@H](C)C[C@@H]2CC[C@@H](OC(=O)N3CCCCC3)[C@H](OC)C2)CC(=O)[C@H](C)/C=C(\C)[C@@H](O)[C@@H](OC)C(=O)[C@H](C)C[C@H](C)CCCC/C=C/1C |  | > 100 | > 100 |  |  | > 100 |  |  | > 100 |  |  | > 100 | > 100 |  |  |  |  |  |  | 
5 | CO[C@@H]1C[C@H](C[C@@H](C)[C@@H]2CC(=O)[C@H](C)/C=C(\C)[C@@H](O)[C@@H](OC)C(=O)[C@H](C)C[C@H](C)/C=C/C=C/C=C(\C)[C@@H](N(O)C(N)=O)C[C@@H]3CC[C@@H](C)[C@@](O)(O3)C(=O)C(=O)N3CCCC[C@H]3C(=O)O2)CC[C@H]1O |  | 100 (≈ 104 µM) | 3.12 (≈ 3.26 µM) |  |  | 100 (≈ 104 µM) |  |  | 12.5 (≈ 13 µM) | 1.56 (≈ 1.63 µM) |  |  |  |  | ~100 (≈ 104 µM) | Weak | Weak | Weak | ~100 (≈ 104 µM) | 758

Now those with a lower MIC (Candida albicans [2]), led by results:

Row | MIC (Aspergillus niger [1]) [µg/mL] | MIC (Candida albicans [2]) [µg/mL] | MIC (Pichia kudriavzevii) [µg/mL] | MIC (Candida albicans [3]) | MIC (Candida albicans [4]) | MIC (Candida albicans [5]) [µg/mL] | MIC (Candida albicans [6]) | MIC (Candida albicans [7]) [µg/mL] | MIC (Candida tropicalis) [µg/mL] | MIC (Nakaseomyces glabratus) [µg/mL] | IC50 [8] [nM] | MIC (Candida albicans [9]) [µg/mL] | MIC (Candida albicans [10]) [µg/mL] | MIC (Candida albicans [11]) [µg/mL] | MIC (Aspergillus niger [12]) [µg/mL] | MIC (Candida albicans [13]) | MIC (Candida albicans [14]) | MIC (Candida albicans [15]) | MIC (Candida albicans [16]) [µg/mL] | Compound | IC50 (Homo sapiens) [nM]
6 |  | 1.56 (≈ 1.7 µM) | 1.56 (≈ 1.7 µM) |  |  | 1.56 (≈ 1.7 µM) |  |  | 1.56 (≈ 1.7 µM) |  |  | 1.56 (≈ 1.7 µM) | 1.56 (≈ 1.7 µM) | 1.56 (≈ 1.7 µM) |  |  |  |  |  | CO[C@H]1C[C@@H]2CC[C@@H](C)[C@@](O)(O2)C(=O)C(=O)N2CCCC[C@H]2C(=O)O[C@H]([C@H](C)C[C@@H]2CCC(O)[C@H](OC)C2)CC(=O)[C@H](C)/C=C(\C)[C@@H](O)[C@@H](OC)C(=O)[C@H](C)C[C@H](C)CCCC/C=C/1C (single isomer, unassigned; 2) | 1590
7 |  | 1.56 (≈ 1.56 µM) | 0.78 (≈ 0.779 µM) |  |  | 3.12 (≈ 3.12 µM) |  |  | 1.56 (≈ 1.56 µM) | 1.56 (≈ 1.56 µM) |  |  |  |  | ~100 (≈ 99.9 µM) | Weak | Weak | Weak | ~100 (≈ 99.9 µM) | CCCOC(=O)N(O)[C@@H]1C[C@@H]2CC[C@@H](C)[C@@](O)(O2)C(=O)C(=O)N2CCCC[C@H]2C(=O)O[C@H]([C@H](C)C[C@@H]2CC[C@@H](O)[C@H](OC)C2)CC(=O)[C@H](C)/C=C(\C)[C@@H](O)[C@@H](OC)C(=O)[C@H](C)C[C@H](C)/C=C/C=C/C=C/1C | 288
8 |  | 1.56 (≈ 1.73 µM) | 0.78 (≈ 0.867 µM) |  |  | 3.12 (≈ 3.47 µM) |  |  | 1.56 (≈ 1.73 µM) | 0.78 (≈ 0.867 µM) | 14 |  |  |  | ~100 (≈ 111 µM) | Weak | Weak | Weak | ~100 (≈ 111 µM) | CO[C@@H]1C[C@H](C[C@@H](C)[C@@H]2CC(=O)[C@H](C)/C=C(\C)[C@@H](O)[C@@H](OC)C(=O)[C@H](C)C[C@H](C)/C=C/C=C/C=C(\C)[C@H](O)C[C@@H]3CC[C@@H](C)[C@@](O)(O3)C(=O)C(=O)N3CCCC[C@H]3C(=O)O2)CC[C@H]1O | 6.3
